Patent publication US20070250942A1, “Non-human transgenic mammals useful for identifying and assessing neural stem/progenitor cells” (Cold Spring Harbor Laboratory, priority 2006, published 2007)
Structures can show the parent of a compound that is named as a salt.

Experiments:
[1] = tested on: dentate gyrus (DG) of the adult brain; conditions: cited from earlier work
[2] = tested on: juvenile dentate gyrus; experiment: Fluoxetine effect on neuronal precursor classes in the juvenile dentate gyrus of nestin-CFPnuc mice; type: in vivo, mouse
Protocol: (§1) Immunohistochemistry. Tissues were fixed by transcardial perfusion with 30 ml of 4% (w/v) paraformaldehyde in PBS, pH 7.4. The brains were removed, cut longitudinally into two hemispheres and postfixed for 3 hrs at room temperature, then transferred to PBS and kept at 4° C. Serial sagittal sections, 50-μm thick, were cut with a Vibratome 1500 (Vibratome, St. Louis, Mo.). Immunostaining was carried following the standard procedure. The sections were incubated with primary antibodies to the target protein (see the list below) at 4° C. in PBS containing 0.2% Triton-100X and 3% BSA. After thorough washing with PBS, appropriate secondary antibodies (see the list below) were incubated in the same solution for 1 hr at room temperature. After washing with PBS, the sections were mounted on gelatine coated slides with DakoCytomation Fluorescent Mounting Medium (DakoCytomation, Carpinteria, Calif.). For the analysis of 5-bromo-2-deoxyuridine (BrdU) incorporation, sections were treated with 2M HCl for 30 min at 55° C., washed with PBS, treated with 1 mM sodium tetraborate for 10 min at room temperature, and finally washed with PBS. The following antibodies were used: chicken anti-GFP (Aves Laboratories, Tigard, Oreg.) 1:500; guinea pig anti-GFAP (Advanced Immunochemicals, Long Beach, Calif.) 1:500; mouse anti-nestin (Chemicon International, Temecula, Calif.) 1:100; mouse anti-NeuN (Chemicon) 1:800; rabbit anti Dcx (generous gift from Dr. C. A. Walsh, Harvard Medical School) 1:2500; rabbit anti-Prox I (generous gift from Dr. S. J. Pleasure, UCSF) 1:2000; rat anti-BrdU (Serotec, Raleigh, N.C.) 1:400; mouse anti-PSA-NCAM (Chemicon) 1:400; AlexaFluor 488 goat anti-chicken (Molecular Probes, Willow Creek Road, Eugene, Oreg.) 1:500; AlexaFluor 594 goat anti-mouse (Molecular Probes) 1:500; AlexaFluor 568 goat anti-rat (Molecular Probes) 1:500; Cy5 goat anti-guinea pig (Jackson Immunoresearch, West Grove, Pa.) 1:500; Cy5 goat anti-rabbit (Jackson Immunoresearch) 1:500; Texas Red donkey anti-chicken (Jackson Immunoresearch) 1:500.
(§2) Quantification. Quantitative analysis of cell populations was performed by means of design-based (assumption free, unbiased) stereology. Slices were collected using systematic-random sampling. One brain hemisphere was randomly selected per animal. The hemisphere was sliced sagittaly, in a lateral-to-medial direction, from the beginning until the end of the lateral ventricle, thus including the whole DG. The 50 μm slices, obtained with a 1500 Vibratome (Vibratome, St. Louis, Mo.), were collected in 6 parallel sets (5 in the case of the juvenile mice), each set consisting of 12 slices, each slice 300 μm apart from the next.
In the young animals, all the BrdU cells were counted in each slice, excluding those in the uppermost focal plane. The number of nestin-CFPnuc stained cells, the QNPs, and the ANPs, was estimated using the two-stage approach. At least 5 optical dissectors (20×20×20 μm) placed in a systematic-random manner, were applied to each slice. Then the volume of the space reference (of the SGZ) was estimated using the Cavalieri-point method.
(§3) All the imaging and quantification procedures were performed using a Zeiss LSM 510 confocal microscope and its software. Statistical analysis and graphs of the numeric data were obtained using SigmaPlot software (SYSTAT, Port Richmond, Calif.) and JMP (SAS Institute Inc., Cary, N.C.).
(§4) On the last day a single injection of BrdU, 150 mg/kg was also administered. […] On the last day they were also given a single injection of BrdU, 150 mg/kg. In both sets of experiments, animals were sacrificed either 24 h or 30 days after the end of the treatment and the BrdU injection.
The action of fluoxetine on stem/progenitor cells was investigated for similarity in both the juvenile and adult brain. […] In the DG of treated juvenile mice, precursor cells can be divided into the same categories as the cells in the adult brain (note that the animals are 20 or 49 days old at the time of analysis). […]

[3] = tested on: subventricular zone (SVZ); experiment: Fluoxetine effect on neurogenesis in the subventricular zone of adult nestin-CFPnuc mice; type: in vivo, mouse; conditions: 15 days treatment
Protocol: as §1, §2
(§5) For counts in the DG, all the cells of each type described were counted in every slice, excluding those in the uppermost focal plane. The volume of the reference space (of the granule cell layer (GCL)+the subgranular zone (SGZ)) was calculated by the Cavalieri-point method. In the subventricular zone (SVZ), for BrdU counts, all the BrdU stained cells were counted in each slice, excluding those in the uppermost focal plane. For nestin-CFP cells, the two-stage approach was used. At least 10 optical disectors (20×20×20 μm), placed following a systematic-random manner, were applied on each slice. Then the volume of the space reference (of the SVZ) was estimated using the Cavalieri-point method.
All the imaging and quantification procedures were performed using a Zeiss LSM 510 confocal microscope and its software. […]

[4] = tested on: adult dentate gyrus; experiment: Fluoxetine effect on neuronal precursor classes in the adult dentate gyrus of nestin-CFPnuc mice (confocal stereology, BrdU labeling); type: in vivo, mouse
Protocol: as §1, §2, §5, §3, §4

[5] = exposure of newborn (p4) mice; cited from earlier work
[6] = 15 days from p5, 1 day, vs vehicle
[7] = 30 days after end of administration, n=5
[8] = adult, 15 days treatment, 24 h, mean±SEM, n=8
[9] = adult, 15 days treatment, 24 h, n=6
[10] = adult, 15 days treatment, 24 h, vs vehicle
[11] = adult, 15 days treatment, 1 day after BrdU, n=8
[12] = adult, 15 days treatment, sacrificed 30 days later, n=6

SMILES: CNCCC(Oc1ccc(C(F)(F)F)cc1)c1ccccc1 (stereo not shown) [fluoxetine, fluoxetine hydrochloride]
- generation of new neurons in the dentate gyrus [1]: increases generation of new neurons
- number of ANPs ([2]; 15 days from p5, 1 day): 16972±1872
- number of QNPs ([2]; 15 days from p5, 1 day): 42048±4328
- number of dividing (BrdU-labeled) ANP cells ([2]; 15 days from p5, 1 day): 1698±184
- number of dividing (BrdU-labeled) QNP cells ([2]; 15 days from p5, 1 day): 2021±434
- number of nestin-CFPnuc cells ([2]; 15 days from p5, 1 day): 61256±4970
- number of BrdU-positive cells in the DG ([2]; 15 days from p5, 1 day after BrdU): 9796±834
- change in number of dividing (BrdU-labeled) QNP cells (not statistically significant) [2, 6]: 28.7%
- fraction of BrdU+NeuN+ cells among total BrdU-positive cells (FIG. 7K BrdU-labeled QNP, FIG. 7L BrdU-labeled ANP) [2, 6]: did not change
- increase in number of ANPs [2, 6]: 52.6%
- increase in number of dividing (BrdU-labeled) ANP cells [2, 6]: 67.7%
- increase in number of nestin-CFPnuc cells [2, 6]: 35.6%
- change in number of QNPs (did not reach statistical significance) ([2]; 15 days from p5, 1 day, vs vehicle, p=0.134): 23.5%
- increase in number of BrdU-positive cells in the DG ([2]; 15 days from p5, 30 days after end of administration, vs vehicle): 42.2%
- increase in number of BrdU-positive cells in the DG ([2]; 15 days treatment from p5, 1 day after BrdU, vs vehicle): 36.3%
- fraction of BrdU- and NeuN-double-positive cells among total BrdU-positive cells ([2]; 30 days after end of administration): 93.6%
- number of BrdU- and NeuN-double-positive cells [2, 7]: 1892±119
- number of BrdU-positive cells in the DG [2, 7]: 2026±153
- increase in number of BrdU- and NeuN-double-positive cells ([2]; 30 days after end of administration, vs vehicle): 42.3%
- number of BrdU-labeled cells in the SVZ [3]: 9550±769
- number of nestin-CFPnuc cells in the SVZ [3]: 473±55 ×10^3
- volume of the SVZ ([3]; in mm³): 0.603±0.051
- change in number of BrdU-labeled cells in the SVZ ([3]; vs vehicle): No changes
- change in number of nestin-CFPnuc cells, their density and volume of the SVZ ([3]; vs vehicle): no significant changes
- increase in number of BrdU-labeled cells in the DG ([4]; 7-month old mice, 10 mg/kg once per day for 15 days, 24 h after BrdU, vs vehicle): 40.9%
- number of BrdU-labeled cells in the DG ([4]; adult, 10 mg/kg/day 15 days, 24 h after BrdU, mean±SEM, n=8): 758±58
- change in Dcx-positive cells (compared with PSA-NCAM-positive cells) ([4]; adult, 15 days treatment, 24 h): Identical changes
- number of ANP cells [4, 8]: 5745±506
- number of QNP cells [4, 8]: 4675±518
- number of BrdU-labeled ANPs [4, 9]: 410±33
- number of BrdU-labeled QNPs [4, 9]: 90±16
- number of PSA-NCAM-positive cells (NB1, NB2 and IN) ([4]; adult, 15 days treatment, 24 h, n=8): 11298±719
- change in number of BrdU-labeled QNPs [4, 10]: not affected
- change in number of QNP cells [4, 10]: no change
- fraction of dividing cells among ANPs [4, 10]: did not change
- fraction of dividing cells among QNPs [4, 10]: did not change
- increase in number of ANP cells [4, 10]: 49.6%
- increase in number of BrdU-labeled ANPs [4, 10]: 46.4%
- increase in number of CFPnuc-positive cells (QNPs and ANPs together) [4, 10]: 24.7%
- increase in number of PSA-NCAM-positive cells (NB1, NB2 and IN) [4, 10]: 26.5±7.2%
- number of IN cells [4, 11]: 858±88
- number of NB1 cells [4, 11]: 6988±538
- number of NB2 cells [4, 11]: 3452±413
- increase in number of NB1 cells ([4]; adult, 15 days treatment, 1 day after BrdU, vs vehicle): 42.1%
- fraction of BrdU+NeuN+ cells among total BrdU-positive cells ([4]; adult, 15 days treatment, sacrificed 30 days later): 92.8±1.6%
- number of BrdU-labeled NeuN-positive neurons [4, 12]: 316±29
- number of BrdU-labeled cells in the DG [4, 12]: 342±24
- increase in number of BrdU-labeled cells in the DG ([4]; adult, 15 days treatment, sacrificed 30 days later, vs vehicle): 46.2%
- anxiety when animals become adults [5]: elevated anxiety
